Reference: US5591821A (priority 1993, dated 1997)

Target: GVIA high affinity site, the N-type Ca^2+ channel (Rattus norvegicus, UniProt Q02294)
Format: binding

Sequence of GVIA high affinity site, the N-type Ca^2+ channel (Q02294 whole entry, looked up): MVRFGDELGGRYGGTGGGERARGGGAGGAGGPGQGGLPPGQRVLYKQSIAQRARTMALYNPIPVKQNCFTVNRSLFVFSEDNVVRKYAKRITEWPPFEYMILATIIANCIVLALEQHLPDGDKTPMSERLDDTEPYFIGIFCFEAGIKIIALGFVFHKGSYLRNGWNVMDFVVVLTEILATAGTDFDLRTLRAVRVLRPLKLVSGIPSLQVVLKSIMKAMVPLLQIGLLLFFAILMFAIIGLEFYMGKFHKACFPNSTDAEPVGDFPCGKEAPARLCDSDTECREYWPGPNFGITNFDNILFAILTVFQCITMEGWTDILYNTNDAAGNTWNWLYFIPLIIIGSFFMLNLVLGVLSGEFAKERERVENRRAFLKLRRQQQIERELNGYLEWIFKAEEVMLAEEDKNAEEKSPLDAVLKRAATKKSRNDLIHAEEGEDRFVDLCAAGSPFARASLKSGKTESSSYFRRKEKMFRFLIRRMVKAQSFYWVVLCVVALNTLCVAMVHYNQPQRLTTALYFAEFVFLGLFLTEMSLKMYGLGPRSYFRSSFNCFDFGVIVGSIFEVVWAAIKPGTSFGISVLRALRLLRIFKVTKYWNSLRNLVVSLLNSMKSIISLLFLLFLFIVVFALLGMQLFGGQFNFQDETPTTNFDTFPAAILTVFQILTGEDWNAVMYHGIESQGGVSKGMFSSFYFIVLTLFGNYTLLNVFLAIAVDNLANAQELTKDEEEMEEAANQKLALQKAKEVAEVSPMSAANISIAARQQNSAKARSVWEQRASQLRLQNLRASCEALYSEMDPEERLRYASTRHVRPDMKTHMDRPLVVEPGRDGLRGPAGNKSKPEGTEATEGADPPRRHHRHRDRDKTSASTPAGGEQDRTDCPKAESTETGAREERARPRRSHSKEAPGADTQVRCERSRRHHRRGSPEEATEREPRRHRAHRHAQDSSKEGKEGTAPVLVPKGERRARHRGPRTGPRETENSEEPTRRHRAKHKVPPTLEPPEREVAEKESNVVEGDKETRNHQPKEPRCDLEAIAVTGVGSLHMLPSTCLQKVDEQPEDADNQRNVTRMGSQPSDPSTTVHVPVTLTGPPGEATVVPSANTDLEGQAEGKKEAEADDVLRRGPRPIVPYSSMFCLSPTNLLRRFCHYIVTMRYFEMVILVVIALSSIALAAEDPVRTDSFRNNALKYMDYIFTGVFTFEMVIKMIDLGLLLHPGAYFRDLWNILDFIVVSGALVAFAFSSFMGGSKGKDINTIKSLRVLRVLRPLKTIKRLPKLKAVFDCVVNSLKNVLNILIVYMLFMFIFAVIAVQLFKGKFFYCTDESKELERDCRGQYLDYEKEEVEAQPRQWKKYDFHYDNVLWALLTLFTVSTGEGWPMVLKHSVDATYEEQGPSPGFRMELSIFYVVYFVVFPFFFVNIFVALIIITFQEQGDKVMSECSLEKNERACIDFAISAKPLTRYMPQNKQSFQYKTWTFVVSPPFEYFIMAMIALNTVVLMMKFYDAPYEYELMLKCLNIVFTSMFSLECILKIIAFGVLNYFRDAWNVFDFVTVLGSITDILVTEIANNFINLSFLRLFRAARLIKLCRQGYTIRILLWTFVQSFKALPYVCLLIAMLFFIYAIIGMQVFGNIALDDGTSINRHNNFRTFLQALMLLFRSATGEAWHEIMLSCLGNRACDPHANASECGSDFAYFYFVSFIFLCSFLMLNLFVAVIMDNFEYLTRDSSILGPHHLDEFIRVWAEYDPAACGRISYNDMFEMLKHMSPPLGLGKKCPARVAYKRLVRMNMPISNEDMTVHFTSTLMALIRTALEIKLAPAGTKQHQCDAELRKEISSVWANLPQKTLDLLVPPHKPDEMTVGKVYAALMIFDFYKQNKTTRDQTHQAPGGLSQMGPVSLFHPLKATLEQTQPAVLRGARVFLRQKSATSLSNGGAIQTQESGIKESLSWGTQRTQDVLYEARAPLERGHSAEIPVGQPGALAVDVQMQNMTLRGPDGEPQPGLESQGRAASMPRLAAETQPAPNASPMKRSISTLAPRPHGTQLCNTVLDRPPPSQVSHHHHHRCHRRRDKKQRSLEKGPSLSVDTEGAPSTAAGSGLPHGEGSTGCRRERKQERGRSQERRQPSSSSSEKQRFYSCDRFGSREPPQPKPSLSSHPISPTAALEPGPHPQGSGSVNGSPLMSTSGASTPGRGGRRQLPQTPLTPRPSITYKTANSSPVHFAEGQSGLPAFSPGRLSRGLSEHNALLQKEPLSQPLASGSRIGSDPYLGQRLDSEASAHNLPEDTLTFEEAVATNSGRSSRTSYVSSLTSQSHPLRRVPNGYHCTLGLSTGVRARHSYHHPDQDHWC

In the case of ω-agatoxin IVA, the “Competition for / displacement of 125I-GVIA binding” value is reported as “did not”.
